From patent US7375124B2, “Use of α-phenylthiocarboxylic and α-phenyloxycarboxylic acids with serum-glucose-lowering and serum-lipid-lowering activity” (Sigma-Tau Industrie Farmaceutiche Riunite S.p.A., priority 2002, dated 2008)

What was measured:
PPARγ = target: T1, PPARγ (Mus musculus, UniProt P37238); assay: Transactivation assay mediated by PPARγ in NIH-3T3 cells (CAT reporter); type: cell-based
T1 construct: expressed in transfected cells; host or cells: NIH-3T3 (mouse embryonal fibroblasts)
T1 sequence (P37238 1-475 isoform P37238-2): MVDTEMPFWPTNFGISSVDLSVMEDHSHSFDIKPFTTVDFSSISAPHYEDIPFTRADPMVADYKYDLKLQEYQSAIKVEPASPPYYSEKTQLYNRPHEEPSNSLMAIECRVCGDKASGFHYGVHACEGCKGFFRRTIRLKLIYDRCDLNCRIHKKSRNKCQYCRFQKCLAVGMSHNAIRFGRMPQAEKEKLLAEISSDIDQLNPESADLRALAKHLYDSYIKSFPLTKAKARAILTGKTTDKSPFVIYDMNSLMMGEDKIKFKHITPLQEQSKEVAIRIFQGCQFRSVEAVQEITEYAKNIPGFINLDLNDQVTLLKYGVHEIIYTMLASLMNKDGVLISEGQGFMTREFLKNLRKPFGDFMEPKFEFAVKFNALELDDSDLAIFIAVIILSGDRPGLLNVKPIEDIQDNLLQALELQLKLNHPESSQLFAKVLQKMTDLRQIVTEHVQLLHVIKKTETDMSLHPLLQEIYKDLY
From the text: A transactivation assay specific for PPARγ thus requires the simultaneous presence of the following in the preselected cell line: • a) a sufficient amount of PPARγ; • b) a sufficient amount of the 9 cis-retinoic acid receptor (RXR); • c) a chimeric plasmid containing the reporter gene controlled by a PPRE, located upstream of a viral heterologous promoter. In our case the reporter gene is chloramphenicol-acetyl transferase (CAT).
In the transactivation assay used, the preselected cells are transfected with the expression vector pSG5 Stop-mPPARg1 which allows the synthesis of the PPARγ receptor by the transfected cell. Simultaneously, a plasmid reporter (pBLCAT2-PPRE) is transfected which contains a peroxisome proliferator response element (PPRE) isolated by the gene promoter for acyl-CoA oxidase, upstream of the heterologous promoter of viral thymidine kinase (TK) fused with the reporter gene CAT. Since the endogenous cell levels of the RXR receptor are sufficiently high, it is not necessary to transfect an expression vector specific for RXR as well. […] Therefore, any increase in CAT levels will be the result of increased gene transcription dependent upon the dimerisation of PPARγ with RXR and upon the heterodimer bond formed with the peroxisome proliferator response element. Together with the expression vector and the reporter vector the cells are also transfected with the plasmid pCH110 which provides the internal control for the efficiency of transfection and the normalisation of the results
A cell line of mouse embryonal fibroblasts (NIH-3T3) was used [Hogan J. C. et al., Biochem Biophys Res Commun. 287 (2), 484-92 (2001)]. The cells were transfected with the reporter plasmid, the expression plasmid coding for the PPARγ receptor and the control vector pCH110. The cells were exposed to increasing concentrations of the study compounds and CAT activity was evaluated. Untreated cells were used as controls.
(§1) Mouse embryonal fibroblasts (NIH-3T3) were cultured according to the usual cell culture techniques, at 37° C. in a 5% v/v carbon dioxide atmosphere using as the growth medium DMEM (Dulbecco's modified Eagle's medium) modified with 3.7 g/l of sodium bicarbonate, 4 mM L-glutamine, 4.5 g/l of glucose, 1 mM sodium pyruvate and 10% v/v of calf serum, in the presence of streptomycin 100 μg/ml and penicillin 100 U/ml final.
The cells were co-transfected using the transfection reagent FuGENE6 (Roche), already described in the previous example. Twenty-four hours prior to transfection the cells were plated at a density of 8.0×10^4 cells/well in 12-well plates and maintained at 37° C. in a 5% v/v CO2 atmosphere. The culture medium, devoid of serum, was replaced 2 hours before transfection, and then the cells were treated with the transfection reagent FuGENE6, as described in the previous example. After 5 hours, the transfection medium was replaced by 1 ml of culture medium complete with serum and antibiotics in the presence or absence of the molecules to be tested at 3 different concentrations (2, 20 and 100 μM). Rosiglitazone, a known ligand of PPARγ, was used as the positive reference compound.
The cell protein extracts were prepared and the CAT activity assay was conducted exactly as described in the previous example.
As an internal control for the normalisation of the CAT activity in relation to the transfection efficiency, β-galactosidase activity coded for by the corresponding gene in the co-transfected plasmid pCH110 was used.
β-galatosidase activity was measured exactly as described in the previous example.
For the normalisation of the CAT assay results in relation to […] activity the formula described in the previous example was used.

mPPARαLBD/Gal4DBD = target: T2, mPPARαLBD/Gal4DBD (Mus musculus, UniProt P23204); assay: Transactivation assay mediated by mPPARαLBD/Gal4DBD in COS-7 cells (CAT reporter); type: cell-based
T2 construct: expressed in transfected cells; host or cells: COS-7 (monkey kidney fibroblasts)
T2 sequence (P23204 239-466 limits assumed): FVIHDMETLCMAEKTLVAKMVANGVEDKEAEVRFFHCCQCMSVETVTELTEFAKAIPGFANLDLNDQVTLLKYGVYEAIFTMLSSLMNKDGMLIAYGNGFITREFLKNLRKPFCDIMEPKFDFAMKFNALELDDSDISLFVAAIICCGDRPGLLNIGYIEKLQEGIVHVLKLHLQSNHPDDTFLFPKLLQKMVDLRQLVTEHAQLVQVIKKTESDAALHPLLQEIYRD
From the text: In this model a transactivation assay is used in which the expression vector mPPARαLBD/Gal4 DBD allows the synthesis by the transfected cell of a chimeric protein, in which the ligand binding domain (LBD) of PPARα is fused with the DNA binding domain (DBD) of the transcription factor GAL4 of yeast [Luckow B. et al., Nucleic Acids Res. 15, 5490 (1987)]. Simultaneously, a plasmid (pG5CAT) is transfected which contains 5 copies of the high-affinity binding site for GAL4 (also called UAS, upstream activating sequence), upstream of the viral promoter E1b fused with the CAT reporter gene [Moya-Camarena S. Y. et al., J. Lipid Res. 40 (8), 1426-33 (1999)]. This model eliminates interference by possible endogenous receptors.
This is due to the fact that the activation of E1b and the production of CAT will occur exclusively thanks to the interaction of GAL4 DBD with its own response element (UAS). Since the transcription factor GAL4 is not expressed in […] cells, transactivation of the reporter gene can take place only when, as a result of the interaction of a ligand with the LBD of PPARα, the chimeric protein PPARα/GAL4 recognises the UAS sequence on the plasmid pG5CAT. Together with the expression vector and the reporter vector the cells were also transfected with the plasmid pCH110 which provides the internal control for the efficiency of transfection and the normalisation of the results.
A monkey kidney fibroblast cell line (COS-7) was used [Elbrecht A. et al., J. Biol. Chem. 274 (12), 7913-22 (1999)]. The cells were co-transfected with the reporter vector, the expression plasmid coding for the fusion protein Gal4 DBD/PPARαLBD and the control vector pCH110. The cells were exposed to increasing concentrations of the study compounds and CAT activity was evaluated. Untreated cells were used as controls.
as §1, with “Monkey kidney” for “Mouse embryonal”, “(COS-7)” for “(NIH-3T3)”, “foetal bovine” for “calf”
The cells were co-transfected using the transfection reagent FuGENE6 (Roche), consisting of a defined mixture of lipids capable of complexing the DNA and of transporting it into the cells. Twenty-four hours prior to transfection the cells were plated at a density of 1.2×10^5 cells/well in 12-well plates and maintained at 37° C. in a 5% v/v CO2 atmosphere. […] Briefly, the transfection mixture containing 0.8 μg of the expression vector, 1.6 μg of the reporter vector, 0.8 μg of the control vector and 9 μl of the FuGENE6 reagent per well was added directly to the cells in the presence of culture medium devoid of serum. After 5 hours, the transfection medium was replaced by 1 ml of culture medium complete with serum and antibiotics in the presence or absence of the molecules to be tested at 3 different concentrations (2, 20 and 100 μM). Wy-14,643 (2 μM), a known ligand of PPARα, was used as the positive reference compound.
After 48 hours' incubation at 37° C. in a 5% v/v CO2 atmosphere, the cells were washed twice with 1 ml of phosphate buffer (PBS) and removed mechanically from the wells in TEN buffer (Tris[hydroxymethyl]aminomethane 10 mM pH 8, ethylenediamine-tetraacetic acid 1 mM pH 8, sodium chloride 0.1 M). After centrifuging for 3 minutes at 1000 rpm, the cells were resuspended in 65 μl of lysis buffer (Tris-HCl 0.25 M, pH 8) and then lysed thanks to three rapid freeze-thaw cycles. The insoluble cellular materials (debris) were removed by centrifuging at 15,000 rpm for 15 minutes at 4° C., and the supernatant was recovered and used for the CAT and β-galactosidase activity assays. […]

Row | Activation of the gene-reporter CAT as a percentage of the reference compound (rosiglitazone 2 μM = 100%) (PPARγ; 2 μM) [%] | Activation of the gene-reporter CAT as a percentage of the reference compound (rosiglitazone 2 μM = 100%) (PPARγ; 20 μM) [%] | Activation of the gene-reporter CAT as a percentage of the reference compound (rosiglitazone 2 μM = 100%) (PPARγ; 100 μM) [%] | Activation of reporter gene CAT as a percentage of the reference compound (WY-14,643 2 μM = 100%) (mPPARαLBD/Gal4DBD; 2 μM) [%] | Activation of reporter gene CAT as a percentage of the reference compound (WY-14,643 2 μM = 100%) (mPPARαLBD/Gal4DBD; 20 μM) [%] | Activation of reporter gene CAT as a percentage of the reference compound (WY-14,643 2 μM = 100%) (mPPARαLBD/Gal4DBD; 100 μM) [%] | SMILES
1 | 61.6 | 91.6 | 101 | 132.3 | 199.3 | 203.8 | CC(C)(Sc1cccc(OCCc2ccc(Cl)cc2Cl)c1)C(=O)O [Example 13, 2-[3-(2-(2,4-dichlorophenyl)ethoxy)phenylthio]-2-methylpropanoic acid]
2 | 25 | 67 | 82.2 | 85 | 96.4 | 151.9 | CC(C)(Sc1cccc(OCCc2ccc3ccccc3c2)c1)C(=O)O [Example 18, 2-[3-[2-(2-naphthyl)ethoxy]phenylthio]-2-methylpropanoic acid]
